Data reported in ChEMBL document CHEMBL3217470, “Binding free energy calculations and biological testing of novel thiobarbiturates as inhibitors of the human NAD+dependent histone deacetylase Sirt2” (Medchemcomm, 2012).

Target: T1, NAD-dependent protein deacetylase sirtuin-2 (Homo sapiens, UniProt Q8IXJ6)
T1 sequence (Q8IXJ6 whole entry): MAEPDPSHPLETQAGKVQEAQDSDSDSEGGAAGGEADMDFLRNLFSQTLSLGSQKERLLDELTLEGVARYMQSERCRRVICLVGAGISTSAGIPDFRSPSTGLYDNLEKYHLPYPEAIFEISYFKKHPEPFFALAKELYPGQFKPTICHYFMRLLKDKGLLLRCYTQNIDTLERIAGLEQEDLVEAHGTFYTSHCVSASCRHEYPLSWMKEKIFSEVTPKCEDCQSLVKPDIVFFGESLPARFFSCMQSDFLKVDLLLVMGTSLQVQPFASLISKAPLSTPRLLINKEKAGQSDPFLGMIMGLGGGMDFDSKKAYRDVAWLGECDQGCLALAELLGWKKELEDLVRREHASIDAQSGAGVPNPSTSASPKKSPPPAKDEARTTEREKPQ
Test: Inhibition of human recombinant Sirt2 using ZMAL as substrate after 4 hrs by fluorescent deacetylase assay
Details: read-out: IC50

Row | Compound | IC50 [µM]
1 | O=C1NC(=S)NC(=O)C1=Cc1ccc(-c2ccc(Cl)cc2)o1 | 6.5
2 | O=C1NC(=S)NC(=O)C1=Cc1ccc(-c2ccc(Cl)c(Cl)c2)o1 | 1.5
3 | C=CCN1C(=O)/C(=C/c2ccc(-c3cccc(Cl)c3Cl)o2)C(=O)NC1=S | 2.8
4 | CC(C)Oc1ccc(C=C2C(=O)NC(=S)NC2=O)cc1 | 5.8
5 | COc1ccc(CC2C(=O)NC(=S)NC2=O)cc1OCc1ccccc1 | 5.8
6 | CCOc1ccc(C=C2C(=O)NC(=S)NC2=O)cc1CCc1ccccc1 | 4.9
7 | O=C1NC(=S)NC(=O)C1=Cc1cc(OCc2ccc(Br)cc2)ccc1Cl | 1.8
8 | O=C1NC(=S)NC(=O)C1=Cc1ccc(OCc2ccccc2)c(OCc2ccccc2)c1 | 3.9
9 | O=C1NC(=S)NC(=O)C1=Cc1ccc(OCc2cccc3ccccc23)cc1 | 2.6
10 | CC(=O)c1ccc(-c2ccc(C=C3C(=O)NC(=S)NC3=O)o2)cc1 | 5.5
11 | O=C1NC(=S)NC(=O)C1=Cc1ccc(-c2ccc(C(=O)OCc3cccc(Cl)c3)cc2)o1 | 2.2
12 | O=C1NC(=S)NC(=O)C1=Cc1cn(-c2ccccc2)nc1-c1ccc(Cl)cc1 | 3.8
13 | O=C1NC(=S)NC(=O)C1=Cc1ccc(Sc2ccccc2)o1 | 3.5
14 | COC(=O)c1ccc(-c2ccc(C=C3C(=O)NC(=S)NC3=O)o2)cc1 | 5.7

Same assay, conditions: read-out: pIC50 (converted)

Row | Compound | IC50 [µM]
15 | O=C1NC(=S)NC(=O)C1=Cc1ccc(-c2ccc(Cl)cc2)o1 | 2.19
16 | O=C1NC(=S)NC(=O)C1=Cc1ccc(-c2ccc(C(=O)OCc3cccc(Cl)c3)cc2)o1 | 6.46
